Reference: patent publication US20230109839A1, “THERAPEUTIC AGENT FOR TAUOPATHIES” (SUMITOMO PHARMA CO., LTD., priority 2020, published 2023)
“Also recorded” adds a separate entry of the source.

Assays:
[1] = tested on: phosphorylated tau oligomer; assay: Evaluation of phosphorylated tau oligomers in brain of APP-Tg mice, Western blotting (Test 4); type: in vivo, mouse; details: for reducing effect of tau oligomer: with food for 7-10 days, ABT 1 mg/g-food depending on the compound, brain, anti-oligomerized tau antibody TOMA-1
Procedure: Test 4: Evaluation of Phosphorylated Tau Oligomers Using APP-Tg Mice
This test is a test to quantify the oligomer of phosphorylated tau in the brain to evaluate the action of a compound. […] The APP-Tg mice used herein were prepared by the method described in Test 3.
The test compound administered with food to APP-Tg mice for 7-10 days. At this time, in order to increase the blood concentration of the test compound, ABT was used in combination with a mixed diet of 1 mg/g-food depending on the compound. After the administration, the brain was collected, and the protein is extracted from the collected brain using TBS (Tris Buffered Saline) or sarcosyl, and then SDS-PAGE (sodium dodecyl sulfate-polyacrylamide gel electrophoresis) of the soluble or insoluble fraction was performed. After that, Western blotting was performed using an anti-oligomerized tau antibody (Anti-Tau, oligomeric, clone TOMA-1), and the effect of the test compound was evaluated by quantifying the band amount of the phosphorylated tau oligomer.
The reducing effect of phosphorylated tau oligomer was calculated by the following formula, and from the calculated values, the results were defined as follows: 0-25%: +, 25-50%: ++, 50-75%: +++, and 75-100%: ++++. The significant difference from the vehicle-administered group was determined using the Student t-test. For the band amount, the value corrected by the β-actin band amount was used.
Reducing effect of phosphorylated tau oligomer={(band amount of oligomerized tau in vehicle-administered group−band amount of oligomerized tau in test compound-administered group)/band amount of oligomerized tau in vehicle-administered group}×100

human Nav1.1 = molecular target: T1, human Nav1.1 (Homo sapiens, UniProt P35498); assay: Amplification of Nav1.1-derived voltage-gated sodium current (Nav1.1 current), automated patch clamp (Test 1); type: cell-based; details: HEK293, Concentration for evaluation 1 μM; HEK293 cell line stably expressing human Nav1.1; read-out: Nav1.1 current amplification rate (%)
T1 construct: host or cells: HEK293
How it was run: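 HEK293 cells stably expressing human Nav1.1, restricted to cells with >500 pA current, were recorded by automated voltage-clamp patch clamp with a ramp voltage stimulus. Compounds were applied in HEPES-buffered extracellular solution with 1% DMSO. Amplification (%) = 100×(peak or AUC after/before compound)−100.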

Row | SMILES | Reducing effect of phosphorylated tau oligomer ([1]; dose 1.9 mg/g-food, 7-10 days, without ABT) | Reducing effect of phosphorylated tau oligomer ([1]; dose 5.8 mg/g-food, 7-10 days, without ABT) | reducing effect of tau oligomer [1] | activation at 1 µM (human Nav1.1) [%] | Reducing effect of phosphorylated tau oligomer ([1]; dose 0.2 mg/g-food, 7-10 days, with ABT 1 mg/g-food) | Reducing effect of phosphorylated tau oligomer ([1]; dose 2 mg/g-food, 7-10 days, with ABT 1 mg/g-food) | inhibition in vivo at 2.2 mg/g-food ([1]; Mus musculus, po, dose 2.2 mg/g-food, 7-10 days, without ABT, read-out: Reducing effect of phosphorylated tau oligomer) [%] | inhibition in vivo at 6.6 mg/g-food ([1]; Mus musculus, po, dose 6.6 mg/g-food, 7-10 days, without ABT, read-out: Reducing effect of phosphorylated tau oligomer) [%]
1 | CC1CCN(c2ccc(=O)n(CC(=O)Nc3ccc(C#N)cc3)n2)CC1 [Example 1, N-(4-Cyanophenyl)-2-[3-(4-methylpiperidin-1-yl)-6-oxopyridazin-1(6H)-yl]acetamide] | + + + | + + + + | some reducing effect of tau oligomer; also recorded: strong reducing effect of tau oligomer | – | – | – | – | –
2 | CN(c1ncc2cnn(CC(=O)Nc3ccn4ncnc4c3)c2n1)C1CCCC1 [Example 795, 2-{6-[cyclopentyl(methyl)amino]-1H-pyrazolo[3,4-d]pyrimidin-1-yl}-N-([1,2,4]triazolo[1,5-a]pyridin-7-yl)acetamide] | – | – | some reducing effect of tau oligomer; also recorded: strong reducing effect of tau oligomer | 111 | + (0-25%: +) | +++ (50-75%: +++) | – | –
3 | CC1CC=C(c2cnc3cnn(CC(=O)Nc4ccn5ncnc5c4)c3n2)CC1 (centres unmarked) [Example 577, 2-[6-(4-methylcyclohex-1-en-1-yl)-1H-pyrazolo[3,4-b]pyrazin-1-yl]-N-([1,2,4]triazolo[1,5-a]pyridin-7-yl)acetamide] | – | – | some reducing effect of tau oligomer; also recorded: strong reducing effect of tau oligomer | 249 | – | – | 0 to 25 | 50 to 75
